# Read-outs that look alike come from different tables or passages of the source.
# Key:
# recombinant Abl1 kinase = target: T1, recombinant Abl1 kinase (Homo sapiens, UniProt P00519); experiment: Recombinant Abl1 kinase inhibition assay ([γ-33P]ATP, peptide substrate); assay type: biochemical
# T1 construct: made in house
# Procedure: The reactions were stopped by adding 5 µL of 3% aq. H3PO4. […] H3PO4, and air-dried.
# [1] = test system: KCL22 cells containing Bcr-Abl^WT; experiment: Cytotoxicity assay (resazurin) on KCL22 WT; assay type: cell-based, human
# BV173 = experiment: Cytotoxicity assay (resazurin) on BV173; assay type: cell-based; details: Homo sapiens, BV-173, 72 h
# Procedure: (§1) Human cell lines KCL22 and BV173 were obtained from the German Collection of Microorganisms and Cell Cultures, K562 and HEK-293T from the European Collection of Authenticated Cell Cultures. KBM5 cell line was kindly gifted by Vladimír Divoký. Development of KCL22 subclones B8 (T315I, 100%), F4 (E255K, 100%), and B10 (Y253H, 50%) was reported previously. All cell lines were cultivated in humidified incubator at 37 °C and in 5% CO2 according to the provider’s instructions in appropriate media supplemented with 10% fetal bovine serum, penicillin (100 IU/mL), streptomycin (100 µg/mL), and glutamine (4 mM).
# (§2) Cytotoxicity was determined using resazurin, an indicator dye to measure oxidation-reduction reactions occurring in the mitochondria of live cells. The cells were seeded into 96-well plates and treated with compounds for 72 h (six different doses of each, in triplicate). After treatment, resazurin (Merck, Darmstadt, Germany) solution was added for 4 h, and the fluorescence of formed resorufin corresponding to live cell quantity was measured at 544 nm/590 nm (excitation/emission) using a Fluoroskan Ascent microplate reader (Labsystems, Vantaa, Finland).
# KCL22 B8 (T315I, 100%) = experiment: Cytotoxicity assay (resazurin) on KCL22 subclone B8; assay type: cell-based; details: Homo sapiens, KCL-22, read-out: GI50 KCL22 B8 T315I (100%), 72 h
# Procedure: as §1, §2
# HEK-293T = experiment: Cytotoxicity assay (resazurin) on non-neoplastic HEK-293T; assay type: cell-based; details: Homo sapiens, 72 h, non-neoplastic cells
# Procedure: as §1, §2
# KCL22 F4 (E255K, 100%) = experiment: Cytotoxicity assay (resazurin) on KCL22 subclone F4; assay type: cell-based; details: Homo sapiens, KCL-22, read-out: GI50 KCL22 F4 E255K (100%), 72 h
# Procedure: as §1, §2
# KBM5 = experiment: Cytotoxicity assay (resazurin) on KBM5; assay type: cell-based; details: Homo sapiens, read-out: GI50 KBM5
# KCL22 B10 (Y253H, 50%) = experiment: Cytotoxicity assay (resazurin) on KCL22 subclone B10; assay type: cell-based; details: Homo sapiens, KCL-22, read-out: GI50 KCL22 B10 Y253H (50%), 72 h
# Procedure: as §1, §2
# K562 = experiment: Cytotoxicity assay (resazurin) on K562; assay type: cell-based; details: Homo sapiens, 72 h
# Procedure: as §1, §2
# [2] = test system: KCL22 B8 cell line containing Bcr-Abl^T315I; experiment: Cell cycle flow cytometry, KCL22 B8; assay type: cell-based, human; details: 24 h treatment
# Procedure: The cell lines were seeded into 96-well plates and then treated with compounds for 24 h. After treatment, the cells were directly stained by adding 5 × staining solution (17 mM trisodium citrate dihydrate, 0.5% IGEPAL® CA-630, 7.5 mM spermine tetrahydrochloride, 2.5 mM Tris; pH 7.6 containing 50 μg/mL propidium iodide). […] Cell cycle distribution was analyzed using ModFit LT 5.0.9 (Verity Software House, Augusta, ME, USA).
# [3] = from the IC50 of Table S1, read-out: pIC50 (Table S1) (converted)
# [4] = recombinant Abl1, 1 µM ATP, at least three independent experiments, read-out: IC50 Abl
# [5] = Homo sapiens, KCL-22, 72 h, read-out: GI50 KCL22 WT
# [6] = as listed in Table S1, Bcr-Abl WT, read-out: IC50 (Table S1)
# T1 sequence (P00519 whole entry): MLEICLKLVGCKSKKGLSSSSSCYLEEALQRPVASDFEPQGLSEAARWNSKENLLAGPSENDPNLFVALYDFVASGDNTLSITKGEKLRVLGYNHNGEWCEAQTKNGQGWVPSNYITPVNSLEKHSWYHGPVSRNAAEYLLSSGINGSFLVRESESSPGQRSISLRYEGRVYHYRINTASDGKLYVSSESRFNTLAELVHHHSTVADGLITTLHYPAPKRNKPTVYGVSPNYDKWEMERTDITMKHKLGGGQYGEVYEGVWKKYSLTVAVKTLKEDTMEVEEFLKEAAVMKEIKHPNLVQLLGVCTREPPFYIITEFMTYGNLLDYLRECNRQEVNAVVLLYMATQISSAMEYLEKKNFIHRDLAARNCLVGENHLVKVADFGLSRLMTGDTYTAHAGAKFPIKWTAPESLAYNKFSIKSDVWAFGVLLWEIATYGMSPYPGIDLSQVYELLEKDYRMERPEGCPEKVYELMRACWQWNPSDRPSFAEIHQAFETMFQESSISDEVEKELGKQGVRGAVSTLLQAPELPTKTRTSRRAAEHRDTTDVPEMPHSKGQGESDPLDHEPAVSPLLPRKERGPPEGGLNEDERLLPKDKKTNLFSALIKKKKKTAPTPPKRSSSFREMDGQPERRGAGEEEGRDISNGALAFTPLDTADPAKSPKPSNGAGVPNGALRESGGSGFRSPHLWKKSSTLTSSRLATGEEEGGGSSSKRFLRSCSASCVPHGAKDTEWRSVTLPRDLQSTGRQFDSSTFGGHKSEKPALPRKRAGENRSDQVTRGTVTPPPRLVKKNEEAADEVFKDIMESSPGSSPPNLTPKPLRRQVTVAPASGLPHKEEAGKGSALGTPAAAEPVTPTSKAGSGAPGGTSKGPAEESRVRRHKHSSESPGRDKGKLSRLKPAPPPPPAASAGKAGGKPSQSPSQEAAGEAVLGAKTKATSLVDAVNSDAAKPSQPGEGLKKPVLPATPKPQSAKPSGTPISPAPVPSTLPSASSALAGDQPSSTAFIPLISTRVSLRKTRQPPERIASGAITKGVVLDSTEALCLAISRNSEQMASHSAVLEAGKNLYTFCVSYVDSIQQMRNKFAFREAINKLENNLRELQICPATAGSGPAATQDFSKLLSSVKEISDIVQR
Structure (SMILES),IC50 (recombinant Abl1 kinase; [3]) [µM],IC50 (recombinant Abl1 kinase; [4]) [µM],melting point [°C],IC50 (recombinant Abl1 kinase; [6]) [µM],"GI50 [1, 5] [µM]",GI50 (BV173) [µM],"GI50 (KCL22 B8 (T315I, 100%)) [µM]",GI50 (HEK-293T) [µM],"GI50 (KCL22 F4 (E255K, 100%)) [µM]","GI50 (KBM5; KBM5, 72 h, resazurin assay) [µM]","GI50 (KCL22 B10 (Y253H, 50%)) [µM]",GI50 (K562) [µM],"GI50 (KBM5; KBM5, 72 h) [µM]","GI50 ([1]; 72 h, read-out: GI50 KCL22 WT) [µM]","GI50 ([1]; read-out: GI50 KCL22 WT, 72 h) [µM]","Effect on cell cycle distribution, KCL22 B8 (T315I) [2]"
"CN1CCN(Cc2ccc(Nc3nc(Nc4cccc(F)c4)c4ncn(CC5CC5)c4n3)cc2)CC1 [Compound 7a, 9-(Cyclopropylmethyl)-N^6-(3-fluorophenyl)-N^2-(4-((4-methylpiperazin-1-yl)methyl)phenyl)-9H-purine-2,6-diamine]",0.18,0.18 ± 0.068,–,–,8.1 ± 0.5,3.3 ± 1.6,13.8 ± 2,6.3 ± 0.7,11.1 ± 0.5,4.4 ± 0.8,7.4 ± 0.6,1.5 ± 0.1,–,–,–,–
"CN1CCN(Cc2ccc(Nc3nc(Nc4ccc(F)c(F)c4)c4ncn(CC5CC5)c4n3)cc2)CC1 [Compound 7b, 9-(Cyclopropylmethyl)-N^6-(3,4-difluorophenyl)-N^2-(4-((4-methylpiperazin-1-yl)methyl)phenyl)-9H-purine-2,6-diamine]",0.22,0.225 ± 0.042,–,–,8.5 ± 1.4,1.9 ± 0.1,11.4 ± 3.2,6.3 ± 1.2,10.1 ± 1.2,4.2 ± 0.2,6.6 ± 0.2,1.4 ± 0.2,–,–,–,–
"CN1CCN(c2ccc(Nc3nc(Nc4ccccc4)c4ncn(CC5CC5)c4n3)cc2)CC1 [Compound I, reference compound]",–,–,–,–,–,2.2 ± 0.2,17.3 ± 2,7.5 ± 1.4,5.7 ± 0.3,–,5.2 ± 0.2,1.5 ± 0.1,2.7 ± 0.1,–,–,–
"CN1CCN(c2ccc(Nc3nc(Nc4cccc(F)c4)c4ncn(CC5CC5)c4n3)cc2)CC1 [II, reference compound]",–,–,–,–,–,5.3 ± 0.2,> 20,5.6 ± 0.6,> 20,–,8.8 ± 0.4,0.8 ± 0.1,5.1 ± 0.5,–,–,–
"CN1CCN(c2ccc(Nc3nc(Nc4ccc(F)c(F)c4)c4ncn(CC5CC5)c4n3)cc2)CC1 [III, reference compound]",–,–,–,–,–,1.4 ± 0.1,> 20,5.3 ± 0.3,> 20,–,3.4 ± 0.4,1.2 ± 0.4,1.1 ± 0.8,–,–,–
"Cc1ccc(NC(=O)c2ccc(CN3CCN(C)CC3)cc2)cc1Nc1nccc(-c2cccnc2)n1 [Imatinib, reference compound]",–,–,–,–,–,0.199 ± 0.061,> 20,> 10,9.6 ± 0.5,–,> 20,0.231 ± 0.001,–,–,–,–
"Cc1cn(-c2cc(NC(=O)c3ccc(C)c(Nc4nccc(-c5cccnc5)n4)c3)cc(C(F)(F)F)c2)cn1 [Nilotinib, reference compound]",–,–,–,–,–,0.003,> 20,> 10,0.789 ± 0.081,0.019 ± 0.009,1.4 ± 0.3,0.025 ± 0.01,–,0.047 ± 0.008,0.019,no effect

# Further lines, with some results ahead:
IC50 (recombinant Abl1 kinase; [3]) [µM],IC50 (recombinant Abl1 kinase; [4]) [µM],melting point [°C],IC50 (recombinant Abl1 kinase; [6]) [µM],Structure (SMILES),"GI50 [1, 5] [µM]",GI50 (BV173) [µM],"GI50 (KCL22 B8 (T315I, 100%)) [µM]",GI50 (HEK-293T) [µM],"GI50 (KCL22 F4 (E255K, 100%)) [µM]","GI50 (KBM5; KBM5, 72 h, resazurin assay) [µM]","GI50 (KCL22 B10 (Y253H, 50%)) [µM]",GI50 (K562) [µM],"GI50 (KBM5; KBM5, 72 h) [µM]","GI50 ([1]; 72 h, read-out: GI50 KCL22 WT) [µM]","GI50 ([1]; read-out: GI50 KCL22 WT, 72 h) [µM]","Effect on cell cycle distribution, KCL22 B8 (T315I) [2]"
0.037,0.037 ± 0.012,–,–,"OCCN1CCN(c2ccc(Nc3nc(Nc4ccccc4)c4ncn(CC5CC5)c4n3)cc2)CC1 [Compound 11a, 2-(4-(4-((9-(Cyclopropylmethyl)-6-(phenylamino)-9H-purin-2-yl)amino)phenyl)piperazin-1-yl)ethan-1-ol]",5.7 ± 0.8,3 ± 0.6,> 20,9.5 ± 0.7,12.7 ± 0.1,3 ± 0.1,6.3 ± 0.4,1.2 ± 0.3,–,–,–,–
0.019,0.02 ± 0.001,–,–,"OCCN1CCN(c2ccc(Nc3nc(Nc4ccc(F)c(F)c4)c4ncn(CC5CC5)c4n3)cc2)CC1 [Compound 11c, 2-(4-(4-((9-(Cyclopropylmethyl)-6-((3,4-difluorophenyl)amino)-9H-purin-2-yl)amino)phenyl)piperazin-1-yl)ethan-1-ol]",2.9,1.7 ± 0.1,6.4 ± 0.4,5 ± 0.9,4.1 ± 0.2,2.1 ± 0.3,4.1 ± 0.2,0.9 ± 0.2,–,–,–,–
1.24,1.24 ± 0.22,88.6 to 89.2,–,"CC(C)CCn1cnc2c(Nc3ccccc3)nc(Nc3ccc(N4CCN(CCO)CC4)cc3)nc21 [Compound 11d, 2-(4-(4-((9-Isopentyl-6-(phenylamino)-9H-purin-2-yl)amino)phenyl)piperazin-1-yl)ethan-1-ol]",8.4 ± 0.3,3.6 ± 0.7,7.8 ± 1.3,5.7 ± 1.2,6.6 ± 0.6,5.6 ± 0.4,7.8 ± 0.5,6.3 ± 0.7,–,–,–,–
1.76,1.76 ± 0.74,–,–,"CC(C)CCn1cnc2c(Nc3ccc(F)c(F)c3)nc(Nc3ccc(N4CCN(CCO)CC4)cc3)nc21 [Compound 11f, 2-(4-(4-((6-((3,4-Difluorophenyl)amino)-9-isopentyl-9H-purin-2-yl)amino)phenyl)piperazin-1-yl)ethan-1-ol]",6.5 ± 0.2,4.5 ± 0.1,7.2 ± 1,5.2 ± 0.7,5.7 ± 0.1,5.2 ± 0.1,7 ± 0.5,5.9 ± 0.6,–,–,–,–
0.83,0.834 ± 0.447,–,0.83,"CCCCCCn1cnc2c(Nc3ccccc3)nc(Nc3ccc(N4CCN(CCO)CC4)cc3)nc21 [Compound 11g, 2-(4-(4-((9-Hexyl-6-(phenylamino)-9H-purin-2-yl)amino)phenyl)piperazin-1-yl)ethan-1-ol]",15.1 ± 2.2,5.2 ± 0.2,10.4 ± 1.8,8.6 ± 3.2,8.5 ± 0.9,5.4 ± 0.2,7.7 ± 0.2,4.5 ± 1.4,–,–,–,–
0.67,0.674 ± 0.069,–,0.67,"CCCCCCn1cnc2c(Nc3cccc(F)c3)nc(Nc3ccc(N4CCN(CCO)CC4)cc3)nc21 [Compound 11h, 2-(4-(4-((6-((3-Fluorophenyl)amino)-9-hexyl-9H-purin-2-yl)amino)phenyl)piperazin-1-yl)ethan-1-ol]",9.6 ± 1,5.2 ± 0.5,9.5 ± 1.5,6 ± 1,8.1 ± 1.2,5.8 ± 0.2,5.9 ± 0.7,4.8 ± 0.4,–,–,–,–
1.68,1.68 ± 0.01,135.1 to 137.1,–,"CCCCCCn1cnc2c(Nc3ccc(F)c(F)c3)nc(Nc3ccc(N4CCN(CCO)CC4)cc3)nc21 [Compound 11i, 2-(4-(4-((6-((3,4-Difluorophenyl)amino)-9-hexyl-9H-purin-2-yl)amino)phenyl)piperazin-1-yl)ethan-1-ol]",> 20,4.8 ± 0.3,> 20,> 20,> 20,5.6 ± 0.2,> 20,3.1 ± 0.6,–,–,–,–
3.95,3.96 ± 0.51,133 to 134,3.95,"CN1CCN(c2ccc(Nc3nc(N)c4ncn(CC5CC5)c4n3)cc2)CC1 [Compound 13a, 9-(Cyclopropylmethyl)-N^2-(4-(4-methylpiperazin-1-yl)phenyl)-9H-purine-2,6-diamine]",> 100,> 20,> 100,> 100,> 100,> 100,> 100,> 100,–,–,–,–
11,11.1 ± 3.31,–,11.1,"CN1CCN(c2ccc(Nc3nc(NC4CCCCC4)c4ncn(CC5CC5)c4n3)cc2)CC1 [Compound 13b, N^6-cyclohexyl-9-(cyclopropylmethyl)-N^2-(4-(4-methylpiperazin-1-yl)phenyl)-9H-purine-2,6-diamine]",> 20,> 20,> 20,> 20,> 20,> 20,> 20,4.8 ± 0.3,–,–,–,–
0.839,0.845 ± 0.066,152 to 154,0.84,"CN1CCN(c2ccc(Nc3nc(NCc4ccccc4)c4ncn(CC5CC5)c4n3)cc2)CC1 [Compound 13c, N^6-benzyl-9-(cyclopropylmethyl)-N^2-(4-(4-methylpiperazin-1-yl)phenyl)-9H-purine-2,6-diamine]",> 20,11.9 ± 1.4,> 20,16.7 ± 1.1,> 20,> 20,> 20,5.7 ± 0.6,–,–,–,–

# — paper PMC11125181, “New Inhibitors of Bcr-Abl Based on 2,6,9-Trisubstituted Purine Scaffold Elicit Cytotoxicity in Chronic Myeloid Leukemia-Derived Cell Lines Sensitive and Resistant to TKIs” (Pharmaceutics, 2024)
